Reference: ChEMBL document CHEMBL1201862, “PubChem BioAssay data set” (2004)
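Growth conditions: 96-well plates. Treatment: test compound, 48 hours, 5 concentrations. Analysis: linear interpolation between bracketing concentrations; unreached endpoints set to highest concentration. Abbreviation: GI50, concentration required for 50% inhibition of growth.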 Active and inactive are the calls of the source. Rule as the data show it: active = GI50 up to about 1.1 µM and inactive = higher.

What was measured:
Experiment in all cases: DTP human tumour cell line panel, 48 h
EKVX = test system: EKVX
RXF 393 = test system: RXF 393
K562 = test system: K562
HL-60 = test system: HL-60
A498 = test system: A498
NCI-H23 = test system: NCI-H23
OVCAR-8 = test system: OVCAR-8
Hs-578T = test system: Hs-578T
UACC-257 = test system: UACC-257
HT-29 = test system: HT-29
SF-295 = test system: SF-295
SNB-75 = test system: SNB-75
UACC-62 = test system: UACC-62
NCI/ADR-RES = test system: NCI/ADR-RES
SR = test system: SR
ACHN = test system: ACHN
MDA-MB-231 = test system: MDA-MB-231
RPMI-8226 = test system: RPMI-8226
MCF7 = test system: MCF7
Malme-3M = test system: Malme-3M

SMILES	GI50 (EKVX)	GI50 (RXF 393)	GI50 (K562)	GI50 (HL-60)	GI50 (A498)	GI50 (NCI-H23)	GI50 (OVCAR-8)	GI50 (Hs-578T)	GI50 (UACC-257)	GI50 (HT-29)	GI50 (SF-295)	GI50 (SNB-75)	GI50 (UACC-62)	GI50 (NCI/ADR-RES)	GI50 (SR)	GI50 (ACHN)	GI50 (MDA-MB-231)	GI50 (RPMI-8226)	GI50 (MCF7)	GI50 (Malme-3M)
CC1(C)OC[C@@H](/C=C\CCO[Si](c2ccccc2)(c2ccccc2)C(C)(C)C)N1C(=O)c1ccccc1	5.75 µM (inactive)	6.84 µM (inactive)	3.1 µM (inactive)	2.51 µM (inactive)	13.9 µM (inactive)	4.61 µM (inactive)	15.8 µM (inactive)	12.5 µM (inactive)	3.49 µM (inactive)	4.14 µM (inactive)	13.1 µM (inactive)	> 100 µM (inactive)	9.91 µM (inactive)	9.14 µM (inactive)	2.79 µM (inactive)	12.3 µM (inactive)	10.9 µM (inactive)	2.86 µM (inactive)	6.32 µM (inactive)	
N#C/C=c1/c2ccccc2n2nc3ccccc3c12	24.5 µM (inactive)	16.8 µM (inactive)	> 100 µM (inactive)	> 100 µM (inactive)	13.7 µM (inactive)	22.3 µM (inactive)	11.7 µM (inactive)	22.1 µM (inactive)	> 100 µM (inactive)	25.6 µM (inactive)	21.7 µM (inactive)		14.9 µM (inactive)	14.9 µM (inactive)	5.79 µM (inactive)	6.71 µM (inactive)	3.61 µM (inactive)	7.36 µM (inactive)	11.3 µM (inactive)	46.6 µM (inactive)
COC(=O)c1ccccc1NC(=S)NN(C)C	> 100 µM (inactive)	> 100 µM (inactive)	> 100 µM (inactive)	> 100 µM (inactive)	> 100 µM (inactive)	> 100 µM (inactive)	> 100 µM (inactive)	> 100 µM (inactive)	> 100 µM (inactive)		> 100 µM (inactive)	28.6 µM (inactive)	> 100 µM (inactive)	> 100 µM (inactive)	> 100 µM (inactive)	> 100 µM (inactive)	> 100 µM (inactive)	> 100 µM (inactive)	> 100 µM (inactive)	> 100 µM (inactive)
c1ccc2cc(CNCCCCNCCCNCc3ccc4ccccc4c3)ccc2c1	1.57 µM (inactive)	1.49 µM (inactive)	0.259 µM (active)		1.99 µM (inactive)	1.8 µM (inactive)	1.69 µM (inactive)	0.167 µM (active)	1.88 µM (inactive)	0.229 µM (active)	1.5 µM (inactive)	1.5 µM (inactive)	1.75 µM (inactive)	1.68 µM (inactive)	0.351 µM (active)	1.42 µM (inactive)	1.82 µM (inactive)	0.226 µM (active)	0.548 µM (active)	1.71 µM (inactive)
CN1CC(S(=O)(=O)c2ccccc2)CC(S(=O)(=O)c2ccccc2)C1c1ccccc1 (stereo not drawn)	14.3 µM (inactive)	14.9 µM (inactive)	15 µM (inactive)	8.81 µM (inactive)	16.2 µM (inactive)		28.7 µM (inactive)	20.9 µM (inactive)	15 µM (inactive)	14.8 µM (inactive)	29.4 µM (inactive)		14.3 µM (inactive)	23.3 µM (inactive)	6.22 µM (inactive)	12.5 µM (inactive)	15.3 µM (inactive)		12.4 µM (inactive)	13.6 µM (inactive)
CN(C)CCCn1nc(N)c2nc3cc(Cl)ccc3nc21	> 66.5 µM (inactive)	30.6 µM (inactive)	> 76.2 µM (inactive)		52.1 µM (inactive)	81.8 µM (inactive)	40.2 µM (inactive)	41.4 µM (inactive)	24.5 µM (inactive)	27.9 µM (inactive)	> 77.1 µM (inactive)	67.8 µM (inactive)	20.7 µM (inactive)	71.8 µM (inactive)	32.5 µM (inactive)	39.7 µM (inactive)	58.3 µM (inactive)	60.3 µM (inactive)	33.3 µM (inactive)	41.1 µM (inactive)
Nc1nc(=O)n(C2OC(CO)C(O)C2O)c2ncc(-c3ccc(-c4ccccc4)cc3)nc12 (stereo not drawn)	94.8 µM (inactive)	> 100 µM (inactive)	> 100 µM (inactive)		> 100 µM (inactive)	> 100 µM (inactive)	> 100 µM (inactive)	> 100 µM (inactive)	> 100 µM (inactive)	> 100 µM (inactive)	> 100 µM (inactive)	28.4 µM (inactive)	66.4 µM (inactive)	> 100 µM (inactive)	3.63 µM (inactive)	> 100 µM (inactive)	21 µM (inactive)	> 100 µM (inactive)	31.3 µM (inactive)	> 100 µM (inactive)
CCN(CC)CCOc1ccc(N2Cc3cc(OC)c(OC)cc3C2=O)cc1	> 100 µM (inactive)	> 100 µM (inactive)	> 100 µM (inactive)	> 100 µM (inactive)	> 100 µM (inactive)	> 100 µM (inactive)	> 100 µM (inactive)	> 100 µM (inactive)	> 100 µM (inactive)	> 100 µM (inactive)	> 100 µM (inactive)		> 100 µM (inactive)	> 100 µM (inactive)	> 100 µM (inactive)	> 100 µM (inactive)	> 100 µM (inactive)	> 100 µM (inactive)	> 100 µM (inactive)	> 100 µM (inactive)
CC(C)=CCC[C@@H](C)/C=C/C=C(\C)C(=O)CC[C@@H]1CC[N@+]2(C)CCCC[C@H]12	> 100 µM (inactive)	35.1 µM (inactive)	49.9 µM (inactive)		> 100 µM (inactive)	> 100 µM (inactive)	> 100 µM (inactive)	96.4 µM (inactive)	> 100 µM (inactive)		> 100 µM (inactive)	49.2 µM (inactive)	> 100 µM (inactive)	> 100 µM (inactive)	> 100 µM (inactive)	> 100 µM (inactive)	> 100 µM (inactive)	70 µM (inactive)	> 100 µM (inactive)	79.8 µM (inactive)
O=C1/C(=C/c2ccc([N+](=O)[O-])cc2)C(=O)N(c2ccccc2)C1c1ccccc1 (stereo not drawn)	> 10 µM (inactive)	> 10 µM (inactive)		> 10 µM (inactive)	> 10 µM (inactive)	> 10 µM (inactive)	> 10 µM (inactive)	> 10 µM (inactive)	> 10 µM (inactive)	> 10 µM (inactive)	> 10 µM (inactive)	> 10 µM (inactive)	> 10 µM (inactive)	> 10 µM (inactive)	> 10 µM (inactive)	> 10 µM (inactive)	> 10 µM (inactive)	> 10 µM (inactive)	> 10 µM (inactive)	
O=C(/C(=C/c1cccs1)c1ccccc1)c1ccccc1	> 100 µM (inactive)	4.99 µM (inactive)	> 100 µM (inactive)	47.4 µM (inactive)	> 100 µM (inactive)	76.6 µM (inactive)	> 100 µM (inactive)	> 100 µM (inactive)	> 100 µM (inactive)	53.2 µM (inactive)	> 100 µM (inactive)	37.7 µM (inactive)	> 100 µM (inactive)	> 100 µM (inactive)	34.3 µM (inactive)	39.4 µM (inactive)	23.4 µM (inactive)	> 100 µM (inactive)	> 100 µM (inactive)	
CCCCCCc1nn2c(-c3ccncc3)nnc2s1	> 10 µM (inactive)	> 10 µM (inactive)	> 10 µM (inactive)	> 10 µM (inactive)	> 10 µM (inactive)	> 10 µM (inactive)	> 10 µM (inactive)	> 10 µM (inactive)	> 10 µM (inactive)	> 10 µM (inactive)	> 10 µM (inactive)		> 10 µM (inactive)	> 10 µM (inactive)	> 10 µM (inactive)	> 10 µM (inactive)	> 10 µM (inactive)	> 10 µM (inactive)	> 10 µM (inactive)	> 10 µM (inactive)
COc1cc2nc3c(=C(C#N)C#N)c4ccccc4n3c(=O)c2cc1OC	> 100 µM (inactive)	> 100 µM (inactive)	> 100 µM (inactive)		> 100 µM (inactive)	> 100 µM (inactive)	> 100 µM (inactive)	44.3 µM (inactive)	> 100 µM (inactive)	> 100 µM (inactive)	> 100 µM (inactive)	41.6 µM (inactive)	> 100 µM (inactive)	> 100 µM (inactive)	> 100 µM (inactive)	> 100 µM (inactive)	> 100 µM (inactive)	> 100 µM (inactive)	> 100 µM (inactive)	
Oc1ccccc1/C=N/Nc1nc(N/N=C/c2ccccc2O)nc(N/N=C/c2ccccc2O)n1	> 100 µM (inactive)	87.1 µM (inactive)	> 100 µM (inactive)	> 100 µM (inactive)	> 100 µM (inactive)	> 100 µM (inactive)	> 100 µM (inactive)	46.5 µM (inactive)	> 100 µM (inactive)	69.7 µM (inactive)	86.1 µM (inactive)		51.1 µM (inactive)	24.5 µM (inactive)	> 100 µM (inactive)	69.7 µM (inactive)	> 100 µM (inactive)		8.63 µM (inactive)	> 100 µM (inactive)
O=S(=O)(O)c1ccc2cccc(/N=N\c3c(O)ccc4ccccc34)c2c1	> 100 µM (inactive)	> 100 µM (inactive)	> 100 µM (inactive)	> 100 µM (inactive)	> 100 µM (inactive)	> 100 µM (inactive)	> 100 µM (inactive)	> 100 µM (inactive)	> 100 µM (inactive)		> 100 µM (inactive)	> 100 µM (inactive)	> 100 µM (inactive)	> 100 µM (inactive)	> 100 µM (inactive)	> 100 µM (inactive)	> 100 µM (inactive)		> 100 µM (inactive)	> 100 µM (inactive)
